According to ChEMBL document CHEMBL5385890, “A JAK tyrosine kinase and pseudokinase Co-inhibition strategy combines enhanced potency and on-demand activation” (Eur J Med Chem, 2023):
Active and inactive are the calls of the source. The calls are words filed in the database; no cut-off is given here.

Key:
[1] = test system: HEL; test: Cytotoxicity against HEL cells assessed as inhibition of cell growth incubated under dark condition in presence of 3-cyclopropyl-1-(3-{5-[(morpholin-4-yl)methyl]-1H-1,3-benzodiazol-2-yl}-1H-pyrazol-4-yl)urea; type: functional, cell-based; conditions: Homo sapiens
[2] = test system: HEL; test: Synergistic cytotoxicity against HEL cells assessed as combination index for 50% activity in presence of 3-cyclopropyl-1-(3-{5-[(morpholin-4-yl)methyl]-1H-1,3-benzodiazol-2-yl}-1H-pyrazol-4-yl)urea; type: functional, Homo sapiens
[3] = test system: HEL; test: Antitumor activity against HEL cells xenografted in Balb/c nude mouse assessed as induction of apoptosis in tumor at 32.5 mg/kg, ip administered once daily for 14 consecutive days in presence of 3-cyclopropyl-1-(3-{5-[(morpholin-4-yl)methyl]-1H-1,3-benzodiazol-2-yl}-1H-pyrazol-4-yl)urea by TUNEL assay relative to control; type: functional, organism-based; conditions: Homo sapiens, time 14.0 day
[4] = test system: HEL; test: Cytotoxicity against HEL cells assessed as inhibition of cell growth incubated in presence of decernotinib; type: functional, cell-based; conditions: Homo sapiens
[5] = test system: HEL; test: Cytotoxicity against HEL cells assessed as inhibition of cell growth at 0.2 uM relative to control; type: functional; conditions: Homo sapiens
[6] = test system: HEL; test: Synergistic cytotoxicity against HEL cells assessed as combination index for 50% activity in presence of ruxolitinib; type: functional, Homo sapiens
[7] = test system: HEL; test: Synergistic cytotoxicity against HEL cells assessed as combination index for 50% activity in presence of decernotinib; type: functional, Homo sapiens
[8] = test system: HEL; test: Synergistic cytotoxicity against HEL cells assessed as combination index for 25% activity in presence of ruxolitinib; type: functional, Homo sapiens
[9] = test system: HEL; test: Synergistic cytotoxicity against HEL cells assessed as combination index for 75% activity in presence of decernotinib; type: functional, Homo sapiens
[10] = test system: HEL; test: Synergistic cytotoxicity against HEL cells assessed as combination index for 25% activity in presence of 3-cyclopropyl-1-(3-{5-[(morpholin-4-yl)methyl]-1H-1,3-benzodiazol-2-yl}-1H-pyrazol-4-yl)urea; type: functional, Homo sapiens
[11] = test system: HEL; test: Cytotoxicity against HEL cells assessed as inhibition of cell growth at 50 uM relative to control; type: functional; conditions: Homo sapiens
[12] = test system: HEL; test: Cytotoxicity against HEL cells assessed as inhibition of cell growth at 5 uM relative to control; type: functional; conditions: Homo sapiens
[13] = test system: HEL; test: Cytotoxicity against HEL cells assessed as inhibition of cell growth at 1 uM relative to control; type: functional; conditions: Homo sapiens
[14] = Cytotoxicity against HUVEC cells assessed as inhibition of cell growth incubated in presence of 3-cyclopropyl-1-(3-{5-[(morpholin-4-yl)methyl]-1H-1,3-benzodiazol-2-yl}-1H-pyrazol-4-yl)urea; type: toxicity, cell-based; conditions: human
[15] = test system: HEL; test: Synergistic cytotoxicity against HEL cells assessed as combination index for 50% activity in presence of tofacitinib; type: functional, Homo sapiens
[16] = test system: HEL; test: Cytotoxicity against HEL cells assessed as inhibition of cell growth incubated in presence of tofacitinib; type: functional, cell-based; conditions: Homo sapiens
[17] = test system: HEL; test: Synergistic cytotoxicity against HEL cells assessed as combination index for 95% activity in presence of tofacitinib; type: functional, Homo sapiens
[18] = test system: HEL; test: Cytotoxicity against HEL cells assessed as inhibition of cell growth incubated in presence of ruxolitinib; type: functional, cell-based; conditions: Homo sapiens
[19] = test system: HEL; test: Cytotoxicity against HEL cells assessed as inhibition of cell growth at 25 uM relative to control; type: functional; conditions: Homo sapiens
[20] = test system: HEL; test: Synergistic cytotoxicity against HEL cells assessed as combination index for 75% activity in presence of tofacitinib; type: functional, Homo sapiens
[21] = test system: HEL; test: Cytotoxicity against HEL cells assessed as inhibition of cell growth incubated in presence of 3-cyclopropyl-1-(3-{5-[(morpholin-4-yl)methyl]-1H-1,3-benzodiazol-2-yl}-1H-pyrazol-4-yl)urea; type: functional, cell-based; conditions: Homo sapiens
[22] = test system: HEL; test: Synergistic cytotoxicity against HEL cells assessed as combination index for 95% activity in presence of ruxolitinib; type: functional, Homo sapiens
[23] = test system: HEL; test: Cytotoxicity against HEL cells assessed as inhibition of cell growth irradiated with 450 nm light and incubated in presence of 3-cyclopropyl-1-(3-{5-[(morpholin-4-yl)methyl]-1H-1,3-benzodiazol-2-yl}-1H-pyrazol-4-yl)urea; type: functional, cell-based; conditions: Homo sapiens, light or radiation study
[24] = test system: HEL; test: Synergistic cytotoxicity against HEL cells assessed as combination index for 95% activity in presence of 3-cyclopropyl-1-(3-{5-[(morpholin-4-yl)methyl]-1H-1,3-benzodiazol-2-yl}-1H-pyrazol-4-yl)urea; type: functional, Homo sapiens
[25] = test system: HEL; test: Cytotoxicity against HEL cells assessed as inhibition of cell growth at 0.0016 uM relative to control; type: functional; conditions: Homo sapiens
[26] = Cytotoxicity against HUVEC cells assessed as inhibition of cell growth; type: toxicity, cell-based; conditions: human
[27] = test system: HEL; test: Cytotoxicity against HEL cells assessed as inhibition of cell growth at 0.008 uM relative to control; type: functional; conditions: Homo sapiens
[28] = test system: HEL; test: Synergistic cytotoxicity against HEL cells assessed as combination index for 75% activity in presence of 3-cyclopropyl-1-(3-{5-[(morpholin-4-yl)methyl]-1H-1,3-benzodiazol-2-yl}-1H-pyrazol-4-yl)urea; type: functional, Homo sapiens
[29] = test system: HEL; test: Synergistic cytotoxicity against HEL cells assessed as combination index for 75% activity in presence of ruxolitinib; type: functional, Homo sapiens
[30] = test system: HEL; test: Cytotoxicity against HEL cells assessed as inhibition of cell growth incubated under hypoxic condition in presence of 3-cyclopropyl-1-(3-{5-[(morpholin-4-yl)methyl]-1H-1,3-benzodiazol-2-yl}-1H-pyrazol-4-yl)urea; type: functional, cell-based; conditions: Homo sapiens
[31] = test system: HEL; test: Antitumor activity against HEL cells xenografted in Balb/c nude mouse assessed as tumor growth inhibition at 32.5 mg/kg, ip administered once daily for 14 consecutive days relative to control; type: functional, Homo sapiens; conditions: 336 h, time 14 day, read-out: TGI
[32] = test system: HEL; test: Synergistic cytotoxicity against HEL cells assessed as combination index for 25% activity in presence of decernotinib; type: functional, Homo sapiens
[33] = test system: HEL; test: Cytotoxicity against HEL cells assessed as inhibition of cell growth at 0.04 uM relative to control; type: functional; conditions: Homo sapiens
[34] = test system: HEL; test: Synergistic cytotoxicity against HEL cells assessed as combination index for 95% activity in presence of decernotinib; type: functional, Homo sapiens
[35] = test system: HEL; test: Cytotoxicity against HEL cells assessed as inhibition of cell growth at 100 uM relative to control; type: functional; conditions: Homo sapiens
[36] = test system: BaF3; test: Cytotoxicity against mouse BaF3 cells harboring EPOR JAK2 V617F mutant; type: functional, cell-based
[37] = test system: HEL; test: Cytotoxicity against HEL cells assessed as inhibition of cell growth; type: functional, cell-based; conditions: Homo sapiens
[38] = test system: HEL; test: Synergistic cytotoxicity against HEL cells assessed as combination index for 25% activity in presence of tofacitinib; type: functional, Homo sapiens
[39] = test system: HEL; test: Antitumor activity against HEL cells xenografted in Balb/c nude mouse assessed as tumor growth inhibition at 32.5 mg/kg, ip administered once daily for 14 consecutive days in presence of 3-cyclopropyl-1-(3-{5-[(morpholin-4-yl)methyl]-1H-1,3-benzodiazol-2-yl}-1H-pyrazol-4-yl)urea relative to control; type: functional, Homo sapiens; conditions: 336 h, time 14 day, read-out: TGI

In the case of `Cc1cnc(Nc2ccc(N3CCNCC3)cc2)nc1Nc1cccc(S(=O)(=O)NC(C)(C)C)c1`, the IC50 [1] is reported as 1.41 µM, the CI50 [2] is reported as 0.809 and the Activity [3] is reported as “Active”. The IC50 [4] was 3.07 µM, the inhibition at 0.2 µM [5] was 16.5% and the CI50 [6] was 2.528. For the same compound, the CI50 [7] was 2.226, the CI25 [8] was 2.447 and the CI75 [9] was 1.947. It also gave a CI25 [10] of 0.683, an inhibition at 50 µM [11] of 94.5% and an inhibition at 5 µM [12] of 70.9%. For the same compound, the inhibition at 1 µM [13] was 40.3%, the IC50 [14] was 1.76 µM and the CI50 [15] was 1.636. It also gave an IC50 [16] of 1.53 µM, a CI95 [17] of 0.948 and an IC50 [18] of 2.45 µM. The inhibition at 25 µM [19] was 95%, the CI75 [20] was 1.243 and the IC50 [21] was 0.55 µM. It also gave a CI95 [22] of 2.769, an IC50 [23] of 2.18 µM and a CI95 [24] of 1.366. For the same compound, the inhibition at 0.0016 µM [25] was 3.19%, the IC50 [26] was 0.96 µM and the inhibition at 0.008 µM [27] was -2.98%. The CI75 [28] was 0.972, the CI75 [29] was 2.613 and the IC50 [30] was 1.34 µM. It also gave an inhibition in vivo at 32.5 mg/kg [31] of 62.3%, a CI25 [32] of 2.597 and an inhibition at 0.04 µM [33] of 14.2%. It also gave a CI95 [34] of 1.628, an inhibition at 100 µM [35] of 95.6% and an IC50 [36] of 0.276 µM. For the same compound, the IC50 [37] was 1.16 µM, the CI25 [38] was 2.161 and the inhibition in vivo at 32.5 mg/kg [39] was 91.2%.
